From patent publication US11234436B2, “Method for controlling non-crop pests” (BASF Agrochemical Products B.V., priority 2015, dated 2022)

System: German Cockroach (Blattella germanica)
Assay: Test 1: activity against German cockroach, treated glass vial contact, mortality
Assay type: in vivo
Details: alone, 1 h exposure in treated vial
Protocol: Test 1. Activity Against German Cockroach (Blattella germanica)
Glass vials were treated with 445 μl of varying concentrations of the technical grade active ingredient dissolved in acetone. Vials were turned on their sides and placed on an automated roller table. The vials were rolled (6 rpm) uncapped to allow an even coating of the treatment. Each treatment was replicated five times.
Prior to infestation, cockroaches were incapacitated using carbon dioxide (CO2). Approximately 6 insects were transferred with featherweight, broad tip forceps into treated vials, and held in an environmental chamber at 27° C. and 80% relative humidity for one hour. Following this exposure period, a small amount of CO2 was used to incapacitate the insects facilitating removal from treated vials. Insects were then transferred to 16 oz plastic holding containers provisioned with a small piece of dry cat food and a cotton wick moistened with water, and returned to the environmental chamber. Mortality was assessed at 1, 2, and 3 days after exposure (DAE).

**Q.** `CC1(C)C(C=C(Cl)Cl)C1C(=O)OC(C#N)c1cccc(Oc2ccccc2)c1` (stereo not drawn) [Alphacypermethrin, alpha-cypermethrin] was tested. Which “Average Control %” value (Test Mixture 1.4, 1.96 ppm) did it give?
**A.** Its value is 0%.

**Q.** `CCOCn1c(-c2ccc(Cl)cc2)c(C#N)c(Br)c1C(F)(F)F` [Chlorfenapyr, chlorfenapyr] was tested. Which “Average Control %” value (Test Mixture 1.3, 100 ppm) did it give?
**A.** Its value is 3.3%.

**Q.** With `CN(C(=O)c1ccccc1)c1cccc(C(=O)Nc2c(Br)cc(C(F)(C(F)(F)F)C(F)(F)F)cc2C(F)(F)F)c1F` [Compound i) of formula (I), broflanilide] as the compound, how does the “Average Control %” value (Mixture 1.1, 9.2 ppm) read?
**A.** The value was 10%.

**Q.** And the “Average Control %” value (Test Mixture 1.2, 10 ppm)?
**A.** The value was 10%.

**Q.** What about the “Average Control %” value (Test Mixture 1.3, 9.5 ppm) of the same compound?
**A.** The value was 26.7%.

**Q.** What about the “Average Control %” value (Test Mixture 1.4, 9.5 ppm) of the same compound?
**A.** Its value is 46.7%.

**Q.** Which results are given for `CN/C(=N/CC1CCOC1)N[N+](=O)[O-]` (centres unmarked) [Dinotefuran, dinotefuran]?
**A.** Average Control % (Mixture 1.1, 2.6 ppm): 16.7%; Average Control % (Test Mixture 1.2, 4.1 ppm): 30%
